One data set relates to primary hippocampal/cortical neuronal and glial cultures. Conditions: Sprague-Dawley, rat.
As to `CSc1ccc2c(c1)N(CCC1CCCCN1C)c1ccccc1S2` (stereo not drawn) [thioridazine], the “concentrations at which the compound was toxic/cytotoxic” value was “above 1 µM”.

The data set is the same for the next values; noted with them: α-synuclein oligomer 1.0 μM; 0.5–20 µM.
`CC(NC(C)(C)C)C(=O)c1cccc(Cl)c1` (stereo not drawn) [bupropion]: the “inhibition of α-synuclein oligomer-induced trafficking deficits (in words)” value was “weakly inhibited”.
The same measure, in the same setting: under `NC(=O)N1c2ccccc2C=Cc2ccccc21` [carbamazepine] stands “inhibited deficits at low concentrations”.
Same read-out and setting: the same measure for `CCCCCCNC(=O)n1cc(F)c(=O)[nH]c1=O` [carmofur]: “weakly inhibited”; for `CCCCC1=NC2(CCCC2)C(=O)N1Cc1ccc(-c2ccccc2-c2nnn[nH]2)cc1` [irbesartan]: “weakly inhibited”; for `CC[C@H](C)C(=O)O[C@H]1C[C@@H](C)C=C2C=C[C@H](C)[C@H](CC[C@@H]3C[C@@H](O)CC(=O)O3)[C@H]21` [lovastatin]: “inhibited deficits at low concentrations”.

The values are drawn from paper PMC7986605 (Journal of Neuroscience Research, 2021).
